Source: patent EP4596536A1 (Shanghai de Novo Pharmatech Co., Ltd., priority 2022, dated 2024)

Target: T1, TLR8 (Homo sapiens, UniProt Q9NR97)
T1 construct: host or cells: HEK293 (HEK-BLUE-hTLR8)
T1 sequence (Q9NR97 27-1041): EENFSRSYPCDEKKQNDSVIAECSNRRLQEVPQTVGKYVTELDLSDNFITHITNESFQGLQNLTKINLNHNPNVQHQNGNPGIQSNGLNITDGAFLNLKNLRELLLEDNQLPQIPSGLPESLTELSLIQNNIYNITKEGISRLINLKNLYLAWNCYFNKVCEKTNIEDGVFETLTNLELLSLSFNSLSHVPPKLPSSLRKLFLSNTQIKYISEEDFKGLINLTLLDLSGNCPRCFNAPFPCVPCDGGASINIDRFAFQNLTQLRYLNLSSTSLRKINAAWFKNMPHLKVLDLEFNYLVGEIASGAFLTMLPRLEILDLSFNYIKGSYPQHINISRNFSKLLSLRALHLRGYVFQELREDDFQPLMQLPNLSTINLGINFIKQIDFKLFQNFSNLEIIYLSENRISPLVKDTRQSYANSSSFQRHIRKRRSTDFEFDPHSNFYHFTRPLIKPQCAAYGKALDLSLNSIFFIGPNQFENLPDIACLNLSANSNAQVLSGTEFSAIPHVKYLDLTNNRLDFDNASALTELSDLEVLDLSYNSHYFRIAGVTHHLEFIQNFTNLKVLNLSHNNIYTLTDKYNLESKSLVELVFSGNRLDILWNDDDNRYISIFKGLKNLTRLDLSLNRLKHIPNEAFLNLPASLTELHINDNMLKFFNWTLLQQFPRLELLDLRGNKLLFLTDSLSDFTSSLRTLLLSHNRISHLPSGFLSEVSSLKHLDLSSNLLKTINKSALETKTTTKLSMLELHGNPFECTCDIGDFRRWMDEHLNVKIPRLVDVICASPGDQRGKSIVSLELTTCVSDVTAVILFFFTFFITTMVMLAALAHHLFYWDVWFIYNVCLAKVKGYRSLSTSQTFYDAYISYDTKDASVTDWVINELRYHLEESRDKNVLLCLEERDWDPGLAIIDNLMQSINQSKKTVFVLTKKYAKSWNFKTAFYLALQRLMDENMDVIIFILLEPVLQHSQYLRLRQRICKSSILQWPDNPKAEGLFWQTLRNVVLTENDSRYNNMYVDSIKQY
Experiment: HEK-BLUE-hTLR8 cell SEAP reporter assay (Quanti-Blue)
Format: cell-based
Settings: HEK-BLUE-hTLR8 cells, 0.5 nM to 15 µM, 24 hours
Protocol: In this experiment, the biological activity of TLR7 and TLR8 in the compound of formula I was detected using cell tests. This method was conducted in human embryonic kidney cells (HEK293) expressing TLR family members such as TLR4, TLR7, TLR8 or TLR9. TLR agonists activate TLRs, triggering the activation of downstream NF-kB, which in turn activates the secreted embryonic alkaline phosphatase (SEAP) reporter gene. The activity of SEAP was detected using the Quanti-Blue (InvivoGen) reagent, thereby reflecting the activities of TLR7 and TLR8 agonists.
The detailed experimental method was as follows: HEK-BLUE-hTLR7 and HEK-BLUE-hTLR8 cell lines were purchased from Invivogen Company and cultured in DMEM medium containing 4.5 g/L glucose (Sigma-Aldrich) and 10% fetal bovine serum under the conditions of temperature 37°C, humidity 95% and 5% CO2.
The compound was tested at a concentration ranging from 0.5 nM to 15 µM over a total of 10 concentration gradients. TLR7 or TLR8 agonists with known activity were added as positive controls, and 1 µL of DMSO was added as a negative control.
The cells were treated as follows: the cells were removed from the culture dish and centrifuged to remove the medium, and resuspended in a T-150 bottle with 10 mL of preheated PBS, 12 mL of preheated medium was added, and the cells were gently pipetted up and down and counted under a microscope. A 200,000/mL single-cell suspension was immediately prepared with medium and added to a 96-well plate at 200 µL/well (40,000/well). The final concentration of DMSO was 0.5%.
The compound was added and incubated in an incubator at 37°C, 5% CO2 for 24 hours.
A supernatant at 20 µL/well was aspirated into 180 µL of preheated Quanti-Blue at 37°C, incubated at 37°C for 1.5 hours, and detected for the absorbance (OD value) with a spectrophotometer at 650 nm. The formula for calculating the agonistic effect is as follows:
Effect % = (average OD value of the drug-administered group - average OD value of the DMSO group) / (average OD value of the positive drug group - average OD value of the DMSO group) × 100
Graphpad software was used to fit the concentration-effect curve, and EC50 was calculated. The test results are shown in Table 15 (A denotes < 250 nM, B denotes 250 nM-1 µM, C denotes 1 µM-2 µM, D denotes > 2 µM, and - denotes not listed or not tested): Table 15

EC50 [nM]	Compound
< 250	CCCN(CCO)C(=O)C1=Cc2ccc(C3(C(=O)Nc4cnc5c(c4)CN(C(=O)CCOCCOCCNC(=O)CN4C(=O)C=CC4=O)CC5)CC3)cc2N=C(N)C1 [II-23, 2-amino-8-(1-((6-(3-(2-(2-(2-(2,5-dioxo-2,5-dihydro-1H-pyrrol-1-yl)acetylamino)ethoxy)ethoxy)propionyl)-5,6,7,8-tetrahydro-1,6-naphthyridin-3-yl)carbamoyl)cyclopropyl)-N-(2-hydroxyethyl)-N-propyl-3H-benzo[b]azepine-4-formamide]
250 to 1000	CCCN(CCO)C(=O)C1=Cc2ccc(C3(C(=O)Nc4cnc5c(c4)CN(C(=O)OCc4ccc(NC(=O)CCOCCOCCNC(=O)CCN6C(=O)C=CC6=O)cc4)CC5)CC3)cc2N=C(N)C1 [II-28, 4-(3-(2-(2-(3-(2,5-dioxo-2,5-dihydro-1H-pyrrol-1-yl)propionylamino)ethoxy)ethoxy)propionylamino)benzyl 3-(1-(2-amino-4-((2-hydroxyethyl)(propyl)carbamoyl)-3H-benzo[b]azepin-8-yl)cyclopropane-1-formylamino)-7,8-dihydro-1,6-naphthyridine-6(5H)-carboxylate]
< 250	CCCN(CCO)C(=O)C1=Cc2ccc(C3(C(=O)Nc4cnc5c(c4)CN(C(=O)OCc4ccc(O[C@@H]6O[C@H](C(=O)O)[C@@H](O)[C@H](O)[C@H]6O)c(NC(=O)CNC(=O)CCCCCN6C(=O)C=CC6=O)c4)CC5)CC3)cc2N=C(N)C1 [II-36, (2S,3S,4S,5R,6S)-6-(4-(((3-(1-(2-amino-4-((2-hydroxyethyl)(propyl)carbamoyl)-3H-benzo[b]azepin-8-yl)cyclopropyl-1-formylamino)-5,6,7,8-tetrahydro-1,6-naphthyridine-6-carbonyl)oxy)methyl)-2-(2-(6-(2,5-dioxo-2,5-dihydro-1H-pyrrol-1-yl)hexanoylamino)acetylamino)phenoxy)-3,4,5-trihydroxytetrahydro-2H-pyran-2-carboxylic acid]
250 to 1000	CCCN(CCO)C(=O)C1=Cc2c(F)cc(C3(C(=O)Nc4cncc(CNC(=O)CNC(=O)CCOCCOCCNC(=O)CN5C(=O)C=CC5=O)c4)CC3)cc2N=C(N)C1 [II-64, 2-amino-8-(1-((5-(17-(2,5-dioxo-2,5-dihydro-1H-pyrrol-1-yl)-3,6,16-trioxo-9,12-dioxa-2,5,15-triazaheptadecyl)pyridin-3-yl)carbamoyl)cyclopropyl)-N-(2-hydroxyethyl)-6-fluoro-N-propyl-3H-benzo[b]azepine-4-formamide]
250 to 1000	CCCN(CCO)C(=O)C1=Cc2ccc(C3(C(=O)Nc4cnc5c(c4)CN(C(=O)OCc4ccc(NC(=O)[C@H](CCCNC(N)=O)NC(=O)[C@@H](NC(=O)Cc6ccc(N7C(=O)C=CC7=O)cc6)C(C)C)cc4)CC5)CC3)cc2N=C(N)C1 [II-97]
250 to 1000	CCCN(CCO)C(=O)C1=Cc2ccc(C3(C(=O)Nc4cnc5c(c4)CN(C(=O)OCc4ccc(NC(=O)[C@H](CCCNC(N)=O)NC(=O)[C@@H](NC(=O)C6COC(CN7C(=O)C=CC7=O)OC6)C(C)C)cc4)CC5)CC3)cc2N=C(N)C1 (stereo partly shown) [II-98]
250 to 1000	CCCN(CCO)C(=O)C1=Cc2ccc(C3(C(=O)Nc4cnc5c(c4)CN(C(=O)CCOCCOCCNC(=O)OCc4ccc(NC(=O)[C@H](CCCNC(N)=O)NC(=O)[C@@H](NC(=O)CCCCCN6C(=O)C=CC6=O)C(C)C)cc4)CC5)CC3)cc2N=C(N)C1 [II-104]
250 to 1000	(S)-1-((1-(3-(1-(2-amino-4-((2-hydroxyethyl)(propyl)carbamoyl)-3H-benzo[b]azepin-8-yl)cyclopropyl-1-amido)-7,8-dihydro-1,6-naphthyridin-6(5H)-yl)-1-oxo-5-ureidopentan-2-yl)carbamoylamino)cyclobutyl-1-carboxylic acid [Example 35]

Second part, the compound before the results:

Compound	EC50 [nM]
CCCN(CCO)C(=O)C1=Cc2ccc(C3(C(=O)Nc4cnc5c(c4)CN(C(=O)[C@H](CCCNC(N)=O)NC(=O)[C@@H](NC(=O)CCCCCN4C(=O)C=CC4=O)C(C)C)CC5)CC3)cc2N=C(N)C1 [II-19, 2-amino-8-(1-((6-((S)-2-((S)-2-(6-(2,5-dioxo-2,5-dihydro-1H-pyrrol-1-yl)hexanoylamino)-3-methylbutanoylamino)-5-ureidopentanoyl)-5,6,7,8-tetrahydro-1,6-naphthyridin-3-yl)carbamoyl)cyclopropyl)-N-(2-hydroxyethyl)-N-propyl-3H-benzo[b]azepine-4-formamide]	250 to 1000
CCCN(CCO)C(=O)C1=Cc2ccc(C3(C(=O)Nc4cnc5c(c4)CN(C(=O)CNC(=O)CCOCCOCCNC(=O)CCCNC(=O)CN4C(=O)C=CC4=O)CC5)CC3)cc2N=C(N)C1 [II-24, 2-amino-8-(1-((6-(20-(2,5-dioxo-2,5-dihydro-1H-pyrrol-1-yl)-4,14,19-trioxo-7,10-dioxa-3,13,18-triazaeicosanacyl)-5,6,7,8-tetrahydro-1,6-naphthyridin-3-yl)carbamoyl)cyclopropyl)-N-(2-hydroxyethyl)-N-propyl-3H-benzo[b]azepine-4-formamide]	250 to 1000
CCCN(CCO)C(=O)C1=Cc2ccc(C3(C(=O)Nc4cnc5c(c4)CN(C(=O)CNC(=O)CCOCCOCCNC(=O)CN4C(=O)C=CC4=O)CC5)CC3)cc2N=C(N)C1 [II-46, 2-amino-8-(1-((6-(1-(2,5-dioxo-2,5-dihydro-1H-pyrrol-1-yl)-2,12-dioxo-6,9-dioxa-3,13-diazapentadecan-15-acyl)-5,6,7,8-tetrahydro-1,6-naphthyridin-3-yl)carbamoyl)cyclopropyl)-N-(2-hydroxyethyl)-N-propyl-3H-benzo[b]azepine-4-formamide]	< 250
CCCN(OCC)C(=O)C1=Cc2ccc(C3(C(=O)Nc4cnc5c(c4)CN(C(=O)CCOCCOCCOCCOCCOCCOCCNC(=O)CCN4C(=O)C=CC4=O)CC5)CC3)cc2N=C(N)C1 [II-66, 2-amino-8-(1-((6-(1-(2,5-dioxo-2,5-dihydro-1H-pyrrol-1-yl)-3-oxo-7,10,13,16,19,22-hexaoxa-4-azapentacosan-25-acyl)-5,6,7,8-tetrahydro-1,6-naphthyridin-3-yl)carbamoyl)cyclopropyl)-N-ethoxy-N-propyl-3H-benzo[b]azepine-4-formamide]	250 to 1000
CCCN(CCO)C(=O)C1=Cc2ccc(C3(C(=O)Nc4cnc5c(c4)CN(C(=O)OCc4ccc(NC(=O)[C@H](CC(N)=O)NC(=O)[C@H](C)NC(=O)[C@H](C)NC(=O)CCCCCN6C(=O)C=CC6=O)cc4)CC5)CC3)cc2N=C(N)C1 [II-96]	250 to 1000
